Results published in US9096593B2, “Compounds and methods for kinase modulation, and indications therefor” (Plexxikon Inc., priority 2009, dated 2015).

Tests used:
Fms kinase = Fms kinase (Homo sapiens (Human), UniProt P07333); assay: Fms kinase biochemical activity assay (AlphaScreen, biotin-(E4Y)10 phosphorylation); details: 100 μM ATP; read-out: Biochemical (IC50 μM) Fms
Description: In one assay the biochemical activity IC50 values are determined with respect to inhibition of Fms kinase activity, where inhibition of phosphorylation of a peptide substrate is measured as a function of compound concentration. Compounds to be tested, dissolved in DMSO (1 μL), are added to a white 384-well plate (Costar #3705). Working stocks of Fms kinase (Invitrogen #PV3249), biotin-(E4Y)10 substrate (Upstate Biotech, Cat#12-440), and ATP (Sigma, Cat#A-3377) are prepared in 25 mM Hepes pH 7.5, 0.5 mM MgCl2, 2 mM MnCl2, 2 mM DTT, 0.01% BSA, and 0.01% Tween-20. All components are added to the 384-well plate for a final concentration of 1 ng/well Fms, 30 nM biotin-(E4Y)10 (Upstate Biotechnology) and 100 μM ATP in a volume of 20 μL. Each sample is at 5% DMSO. The plate is then incubated for 20 minutes at 30° C. Just before use, working stocks of donor and acceptor beads from the AlphaScreen PY20 Detection Kit (PerkinElmer, Cat#676601M) are prepared in 25 mM Hepes pH 7.5, pH 7.4, 100 mM EDTA, 0.01% BSA. To stop the reaction, the plate is uncovered in the dark and 5 μL of Donor Beads solution (Streptavidin beads) is added to each well. The plate is incubated at room temperature for 20 minutes. Five microliters of Acceptor Beads solution (PY20 coated beads) are then added to each well. The final concentration of each bead is 10 μg/mL. The plates are incubated at room temperature for 60 minutes. Fluorescence signal is recorded on the Envision reader. […] The signal vs. compound concentration is used to determine the IC50.

BCR-FMS/BaF3 cells = BCR-FMS/BaF3 cells (Homo sapiens, UniProt P07333); assay: BCR-FMS/BaF3 cell proliferation assay (ATPlite); format: cell-based; details: read-out: Cell based (IC50 μM) BCR/BaF3 (Fms); BCR-FMS/BaF3 cells, 3 days
Sequence of BCR-FMS/BaF3 cells (P07333 20-972 limits assumed, change not shown): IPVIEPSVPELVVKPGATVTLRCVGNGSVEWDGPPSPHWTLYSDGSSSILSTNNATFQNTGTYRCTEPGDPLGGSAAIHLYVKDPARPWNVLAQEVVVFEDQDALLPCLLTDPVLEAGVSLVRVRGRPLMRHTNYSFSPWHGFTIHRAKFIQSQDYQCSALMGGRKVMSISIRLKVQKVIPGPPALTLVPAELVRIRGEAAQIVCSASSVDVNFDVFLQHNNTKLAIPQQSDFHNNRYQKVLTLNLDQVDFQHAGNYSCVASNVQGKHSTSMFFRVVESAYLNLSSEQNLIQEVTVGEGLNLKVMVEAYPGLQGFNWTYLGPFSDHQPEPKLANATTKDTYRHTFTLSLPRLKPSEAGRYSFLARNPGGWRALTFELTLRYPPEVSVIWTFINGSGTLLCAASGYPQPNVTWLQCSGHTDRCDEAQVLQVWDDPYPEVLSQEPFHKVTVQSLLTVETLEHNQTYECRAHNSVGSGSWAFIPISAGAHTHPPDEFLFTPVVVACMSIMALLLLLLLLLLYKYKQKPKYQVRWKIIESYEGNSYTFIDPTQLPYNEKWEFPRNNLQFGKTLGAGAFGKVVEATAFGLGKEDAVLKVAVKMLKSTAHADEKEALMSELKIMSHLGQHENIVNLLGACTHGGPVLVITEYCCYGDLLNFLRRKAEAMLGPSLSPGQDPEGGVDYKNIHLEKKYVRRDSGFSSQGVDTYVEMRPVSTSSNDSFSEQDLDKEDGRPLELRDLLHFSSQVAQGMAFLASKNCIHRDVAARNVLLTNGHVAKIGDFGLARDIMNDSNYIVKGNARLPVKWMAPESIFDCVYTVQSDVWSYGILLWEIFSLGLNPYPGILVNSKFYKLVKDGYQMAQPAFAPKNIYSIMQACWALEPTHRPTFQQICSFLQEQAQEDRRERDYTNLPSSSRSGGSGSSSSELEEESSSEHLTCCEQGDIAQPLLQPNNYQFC
Description: Compounds are assessed in a variety of cell based assays. For example BCR-FMS/BaF3, BCR-KIT/BaF3, M-NFS-60, M-07e, and BAC1.2F5 cell proliferation assays are used to assess inhibitory activity of Fms or Kit and MV-4-11 cell proliferation assay is used to assess inhibitory activity in Flt-3. […] On day 1, cells are counted, then centrifuged in a conical tube for 5 minutes at 1000 rpm. The supernatant is removed and cells are re-suspended as follows: • BCR-FMS/BaF3 and BCR-KIT/BaF3: resuspend in growth media+1 mg/mL G418 (without WEHI/IL-3) to 2×10^5 cells/mL. • M-NFS-60: resuspend in growth media +62 ng/mL murine M-CSF to 5×10^5 cells/mL. • M-07e: resuspend in growth media +200 ng/mL human SCF to 5×10^5 cells/mL. • BAC1.2F5: resuspend in growth media +36 ng/mL murine M-CSF to 1.4×10^5 cells/mL. • MV-4-11: resuspend in growth media +10% FBS to 5×10^5 cells/mL. […] On day 2, compound at a maximum concentration of 5 mM is serially diluted 1:3 for a total of 8 point titration with DMSO as a control. A 1 μL aliquot of each dilution point is added to 249 μL growth media and 50 μL is added to a well containing cells, providing 10 μM compound for the maximum concentration point. The cells are incubated for 3 days at 37° C. in 5% CO2. […] ATPlite is added to each well as follows: • BCR-FMS/BaF3 and BCR-KIT/BaF3: 25 μL per well. • M-NFS-60: 25 μL per well. • M-07c: 40 μL per well. • BAC1.2F5: 50 μL per well. • MV-4-11: 40 μL per well. The cells are incubated at room temperature for 10 minutes, then luminescence is read on Safire reader. The measured luminescence correlates directly with cell number, such that the reading as a function of compound concentration is used to determine the IC50 value.

Flt-3 kinase = Flt-3 kinase (Homo sapiens (Human), UniProt P36888); assay: Flt-3 kinase biochemical activity assay (AlphaScreen, biotin-(E4Y)10 phosphorylation); details: 100 μM ATP
Sequence of Flt-3 kinase (P36888 27-993): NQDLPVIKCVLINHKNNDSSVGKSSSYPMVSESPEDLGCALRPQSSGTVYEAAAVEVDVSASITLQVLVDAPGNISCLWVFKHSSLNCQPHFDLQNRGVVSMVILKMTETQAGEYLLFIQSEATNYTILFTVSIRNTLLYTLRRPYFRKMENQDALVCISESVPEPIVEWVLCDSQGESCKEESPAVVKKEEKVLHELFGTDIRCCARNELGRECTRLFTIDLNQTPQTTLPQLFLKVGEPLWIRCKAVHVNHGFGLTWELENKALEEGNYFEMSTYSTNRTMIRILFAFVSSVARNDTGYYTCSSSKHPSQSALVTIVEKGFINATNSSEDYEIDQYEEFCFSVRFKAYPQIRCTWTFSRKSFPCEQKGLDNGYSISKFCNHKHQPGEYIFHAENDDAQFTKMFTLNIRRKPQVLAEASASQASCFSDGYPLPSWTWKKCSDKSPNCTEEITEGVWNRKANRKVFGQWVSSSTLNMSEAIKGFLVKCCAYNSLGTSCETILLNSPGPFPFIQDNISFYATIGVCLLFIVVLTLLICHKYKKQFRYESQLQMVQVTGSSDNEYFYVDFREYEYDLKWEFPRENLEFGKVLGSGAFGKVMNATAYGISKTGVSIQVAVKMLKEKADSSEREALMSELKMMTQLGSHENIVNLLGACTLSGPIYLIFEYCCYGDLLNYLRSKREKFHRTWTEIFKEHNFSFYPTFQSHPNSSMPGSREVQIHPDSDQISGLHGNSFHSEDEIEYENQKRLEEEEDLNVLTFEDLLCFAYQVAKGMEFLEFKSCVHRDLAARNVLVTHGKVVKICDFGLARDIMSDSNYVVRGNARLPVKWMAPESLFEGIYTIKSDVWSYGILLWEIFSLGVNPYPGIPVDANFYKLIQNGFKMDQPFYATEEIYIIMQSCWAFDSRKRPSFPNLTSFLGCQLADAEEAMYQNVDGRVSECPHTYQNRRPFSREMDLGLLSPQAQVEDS
Description: In one assay the biochemical activity IC50 values are determined with respect to inhibition of Flt-3 kinase activity, where inhibition of phosphorylation of a peptide substrate is measured as a function of compound concentration. Compounds to be tested, dissolved in DMSO (1 μL), are added to a white 384-well plate (Costar #3705). Working stocks of Flt-3 kinase (Invitrogen), biotin-(E4Y)10 substrate (Upstate Biotech, Cat#12-440), and ATP (Sigma, Cat#A-3377) are prepared in 25 mM Hepes pH 7.5, 5 mM MgCl2, 5 mM MnCl2, 1 mM DTT, and 0.01% Tween-20. All components are added to the 384-well plate for a final concentration of 1 ng/well Flt-3, 30 nM biotin-(E4Y)10 and 100 μM ATP in a volume of 20 μL. Each sample is at 5% DMSO. The plate is then incubated for 1 hour at room temperature. Just before use, working stocks of donor and acceptor beads from the AlphaScreen PY20 Detection Kit (PerkinElmer, Cat#676601M) are prepared in 25 mM Hepes pH 7.5, pH 7.4, 100 mM EDTA. 0.3% BSA. To stop the reaction, the plate is uncovered in the dark and 5 μL of Donor Beads solution (Streptavidin beads) is added to each well. The plate is incubated at room temperature for 20 minutes. Five microliters of Acceptor Beads solution (PY20 coated beads) are then added to each well. The final concentration of each bead is 10 μg/mL. The plates are incubated at room temperature for 60 minutes. Fluorescence signal is recorded on the Envision reader. Phosphorylated substrate results in binding of the PY20 antibody and association of the donor and acceptor beads such that signal correlates with kinase activity. The signal vs. compound concentration is used to determine the IC50.

Measured: IC50

Sequence of Fms kinase (P07333 20-972): as the sequence (P07333 20-972 limits assumed, change not shown) above

FC(F)(F)c1cnc2[nH]cc(Cc3ccc(NCc4ccc(C(F)(F)F)nc4)nc3)c2c1 [Compound P-1644, (6-Trifluoromethyl-pyridin-3-ylmethyl)-[5-(5-trifluoromethyl-1H-pyrrolo[2,3-b]pyridin-3-ylmethyl)-pyridin-2-yl]-amine]
< 0.1 µM: all assays above

COc1ncc(CNc2ccc(Cc3c[nH]c4ncc(C(F)(F)F)cc34)c(F)n2)cc1F [Compound P-1646, (5-Fluoro-6-methoxy-pyridin-3-ylmethyl)-[6-fluoro-5-(5-trifluoromethyl-1H-pyrrolo[2,3-b]pyridin-3-ylmethyl)-pyridin-2-yl]-amine]
< 0.1 µM: all assays above

Fc1cc(CNc2ncc(Cc3c[nH]c4ncc(Cl)cc34)cn2)cc(C(F)(F)F)c1 [Compound P-2009, [5-(5-Chloro-1H-pyrrolo[2,3-b]pyridin-3-ylmethyl)-pyrimidin-2-yl]-(3-fluoro-5-trifluoromethyl-benzyl)-amine]
< 0.1 µM: all assays above
